Here are results for two molecules from article PMC3420979 (Bioorganic & medicinal chemistry letters, 2012).

One assay deals with T1, CpCDPK1 (Cryptosporidium parvum, UniProt A3FQ16).
T1 sequence (A3FQ16 1-538): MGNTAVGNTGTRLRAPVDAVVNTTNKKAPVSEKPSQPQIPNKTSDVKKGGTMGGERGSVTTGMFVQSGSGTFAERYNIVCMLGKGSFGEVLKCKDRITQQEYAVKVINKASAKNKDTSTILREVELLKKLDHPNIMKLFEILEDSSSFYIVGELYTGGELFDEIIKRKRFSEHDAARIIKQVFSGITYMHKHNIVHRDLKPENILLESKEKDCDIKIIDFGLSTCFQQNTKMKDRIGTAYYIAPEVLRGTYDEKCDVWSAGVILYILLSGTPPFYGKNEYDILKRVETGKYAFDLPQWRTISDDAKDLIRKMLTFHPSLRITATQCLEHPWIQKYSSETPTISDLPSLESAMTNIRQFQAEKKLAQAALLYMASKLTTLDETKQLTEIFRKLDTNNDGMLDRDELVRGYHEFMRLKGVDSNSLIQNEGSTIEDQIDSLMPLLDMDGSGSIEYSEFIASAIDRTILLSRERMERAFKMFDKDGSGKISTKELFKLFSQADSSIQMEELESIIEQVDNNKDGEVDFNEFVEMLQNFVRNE
Briefly: Enzyme inhibition assay, CpCDPK1. The note with it: IC50 against CpCDPK1 (nM), stated for both parasite CDPK1s. Format: biochemical.

The target of the next assay is Abl (Homo sapiens, UniProt P00519). Briefly: Human kinase inhibition, Abl. Format: biochemical. The note with it: parasite CDPK1s versus human Src or Abl.
Chain of Abl (P00519 whole entry): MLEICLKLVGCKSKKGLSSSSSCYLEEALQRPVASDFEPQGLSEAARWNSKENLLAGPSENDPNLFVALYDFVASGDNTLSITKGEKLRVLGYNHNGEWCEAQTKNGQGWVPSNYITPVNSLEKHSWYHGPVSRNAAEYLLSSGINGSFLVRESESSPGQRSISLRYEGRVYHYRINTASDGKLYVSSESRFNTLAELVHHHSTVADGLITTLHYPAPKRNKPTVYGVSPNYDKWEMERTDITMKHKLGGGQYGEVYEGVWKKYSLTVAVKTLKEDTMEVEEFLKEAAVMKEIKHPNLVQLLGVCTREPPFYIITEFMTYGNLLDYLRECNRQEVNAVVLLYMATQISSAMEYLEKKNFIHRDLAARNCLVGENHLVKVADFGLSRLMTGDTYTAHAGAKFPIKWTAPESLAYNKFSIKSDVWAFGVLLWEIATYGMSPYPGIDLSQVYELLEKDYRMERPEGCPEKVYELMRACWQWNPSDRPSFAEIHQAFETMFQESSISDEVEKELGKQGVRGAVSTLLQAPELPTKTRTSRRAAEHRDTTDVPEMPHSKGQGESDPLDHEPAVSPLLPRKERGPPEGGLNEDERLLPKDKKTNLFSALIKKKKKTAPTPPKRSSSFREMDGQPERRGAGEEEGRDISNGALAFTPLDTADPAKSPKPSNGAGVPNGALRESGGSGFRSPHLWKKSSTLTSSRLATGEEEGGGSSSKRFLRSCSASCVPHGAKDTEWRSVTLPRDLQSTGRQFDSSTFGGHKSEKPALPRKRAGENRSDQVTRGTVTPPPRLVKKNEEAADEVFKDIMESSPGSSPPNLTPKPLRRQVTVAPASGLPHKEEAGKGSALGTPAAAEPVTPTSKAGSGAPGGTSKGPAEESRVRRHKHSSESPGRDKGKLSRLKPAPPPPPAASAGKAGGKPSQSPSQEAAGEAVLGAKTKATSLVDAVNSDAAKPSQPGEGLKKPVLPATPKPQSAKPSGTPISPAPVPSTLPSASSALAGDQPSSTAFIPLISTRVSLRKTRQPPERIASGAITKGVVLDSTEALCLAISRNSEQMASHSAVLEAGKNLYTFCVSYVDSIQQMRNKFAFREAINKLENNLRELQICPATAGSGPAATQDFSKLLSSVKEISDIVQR

The term IC50 denotes the concentration needed to halve the response being measured. High values mean weaker potency in that assay, low ones greater potency in that assay. As for `Nc1nc2ccc(C(=O)c3ccccc3)cc2n1CCC1CCNCC1` [7c], at CpCDPK1, the IC50 was under 50 nM. The “selectivity index over human Src or Abl” value on Abl was over 200 fold.
For the molecule `CN1CCN(CCn2c(N)nc3ccc(C(=O)c4ccccc4)cc32)CC1` [7p], on CpCDPK1, the IC50 is under 50 nM. Besides, the “selectivity index over human Src or Abl” value at Abl is over 200 fold.
